Laboratory results taken from patent publication US20220354791A1, “MESOPOROUS POLYMERIC PARTICULATE MATERIAL” (Aston University, priority 2019, published 2022).

Experiment: Dissolution testing of IBU-loaded mesoporous particles (USP I rotating basket)
Type: physicochemical
Settings: after 120 mins; pH 3.0 medium + 0.25% SLS, 900 mL, 37° C., 100 rpm, 50 mg IBU in HPMC capsule
Protocol: Testing conditions: HCL-NaCl medium pH 3+0.25% SLS, 900 mL, USP apparatus 1 (rotating basket), 100 rpm, HPLC method (mobile phase: pH 3 phosphate buffer:acetonitrile (60:40); column: C18, 15 cm×4.6 mm, 5 μm; flow rate: 2 mL/min; injection volume: 20 μL; detector: UV, 254 nm).
Dissolution testing of IBU-loaded mesoporous particles as prepared in Example 4 was performed by using USP I apparatus (rotating basket, 100 rpm) in an Erweka DT 126 dissolution tester. Samples containing 50 mg of IBU were loaded into a HPMC hard-shell capsule and tested in 900 mL of pH 3.0 medium with 0.25% SLS at 37° C. The pH 3 medium was prepared by dissolving 2 g of sodium chloride and 2.5 g of SLS in 400 mL of deionised water, then adding 0.1 mL of hydrochloric acid 37%, and diluting with deionised water to 1000.0 mL. The concentrations of dissolved IBU were determined using a HPLC method with mobile phase of phosphate buffer pH 3: acetonitrile (60:40), C18 column (15 cm×4.6 mm, 5 μm), flow rate of 2 mL/min, injection volume of 20 μL, and UV detector at 254 nm in an Agilent 1200 HPLC system.

CC(C)Cc1ccc(C(C)C(=O)O)cc1 (stereo not shown) [Ibuprofen raw material, Ibuprofen]
Ibuprofen dissolved: 73.4%
